For data set [1], the system named is PD1 signal sequence plus 10 amino acids fused to Gaussia Luciferase (PD1-ss+10aa/Gaussia Luciferase). The experiment in a line: Dox Induced PD1-ss-Gluc Assay. The data set is classed as cell-based. Conditions: 24 hr, Dox inducible, 293FRT/TO cells; read-out: 24 hr Dox Inducible PD1ssGluc 293FRT/TO: Mean IC50. In outline: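 Compound dilutions in DMSO/media containing doxycycline were applied to a stable, inducible 293 T-REx line carrying the luciferase fusion, then incubated at 37 °C, 5% CO2. Where stereochemistry is not drawn, values relate to isomer mixtures.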

Data set [2] concerns full length TNFα (amino acids 1-233) fused to Gaussia Luciferase. The data set is described as follows: Dox Induced TNFα-FL-Gluc Assay. The data set is classed as cell-based. The conditions noted are these: 24 hr, Dox inducible, 293FRT/TO cells; read-out: 24 hr Dox Inducible TNFaFLGluc 293FRT/TO: Mean IC50. In outline: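 Compounds diluted in DMSO/medium with doxycycline were incubated at 37° C, 5% CO2 with 293 T-REx cells stably carrying a Tet-regulated TNFα(1-233)-Gaussia luciferase construct. Data for structures drawn without stereochemistry refer to stereoisomer mixtures.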

The test system of data set [3] is full length IL-2 (amino acids 1-153) fused to Gaussia Luciferase. The data set is described as follows: Dox Induced IL2-FL-Gluc Assay. The data set is classed as cell-based. Conditions: 24 hr, Dox inducible, 293FRT/TO cells; read-out: 24 hr Dox Inducible IL2FLGluc 293FRT/TO: Mean IC50. Put shortly:
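Compounds in DMSO/media with doxycycline were added to cells plated the previous day and incubated at 37° C, 5% CO2. Cells: stable Flp-In 293 T-REx line, Dox-regulated expression of IL-2 (aa 1-153) fused at its C-terminus to Gaussia luciferase.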

The subject of data set [4] is HER3 signal sequence plus 4 amino acids fused to Gaussia Luciferase (HER3-ss+4aa/Gaussia Luciferase). The data set is described as follows: Dox Induced HER3-ss-Gluc Assay. The data set is classed as cell-based. Conditions: 24 hr, doxycycline induced, Flp-In 293 T-REx cells; read-out: 24 hr Dox Inducible Her3(ss + 4) Gluc 293FRT/TO: Mean 1050. The text has this:
FIp-In 293 T-REx™ cells were transfected with pcDNA™5/FRT/TO plasmid inserted with cDNA encoding Gaussia Luciferase fused to the 3′ end of cDNA encoding HER3 signal sequence plus 4 amino acids (N-[…]-C) (SEQ ID NO: 2). Transfected cells were selected for resistance to the selectable markers Hygromycin and Blasticidin to create a stable cell line that contained the HER3-ss+4aa/Gaussia Luciferase cDNA insert whose expression was regulated under the T-REx™ system. The day before assay, cells were trypsinized and plated in 384-well tissue culture plates. The next day, compound dilutions in DMSO/media containing doxycycline were added to the wells and incubated at 37° C., 5% CO2.
For chemical structures that include one or more stereoisomers, but are illustrated without indicating stereochemistry, the assay data refers to a mixture of stereoisomers.

Data set [5] concerns multiple myeloma cell line NCl-H929. The data set is described as follows: H929 Cell Viability Assay. It is filed as cell-based, human. The conditions noted are these: Homo sapiens, NCI-H929, 48 h, H929, Celltiter-Glo. In outline:
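Viability was determined by CellTiter-Glo luminescence after a 48 h, 37 °C exposure of NCI-H929 cells to serial compound dilutions in medium containing 10% FBS. Where stereochemistry is not shown, values refer to a mix of stereoisomers.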
(In general: In ATP-based viability assays light output follows the ATP content of the culture.)

In data set [6] the test system is multiple myeloma cell line U266B1. The data set is described as follows: U266 Cell Viability Assay. The conditions noted are these: Homo sapiens, U-266; 48 hr, U266, Celltiter-Glo. It is filed as cell-based, human. In outline: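 Viability was measured by CellTiter-Glo luminescence after 48 h compound exposure at 37° C, 5% CO2. The cells were U266B1 multiple myeloma cells grown in RPMI 1640 plus 10% FBS. Where stereochemistry is not shown, values apply to the stereoisomer mixture.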

Data set [7] can be described thus: In Vitro Microsome Stability Assay (human). The data set is classed as in vitro ADME. Conditions: human liver microsomes, 30 min w/ NADPH. In outline:
(§1)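 The value reported is the percentage of parent left after 30 min, calculated from analyte/IS peak-area ratios relative to time zero by LC-MS/MS. Incubations ran at 37° C in 0.1 M potassium phosphate with NADPH and microsomes (stock 20 mg/mL), with compound added from a 0.25 mM DMSO stock. Acetonitrile containing IS stopped the reactions.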
In general terms: Liver microsomes are a subcellular fraction often used to study metabolism.

A short description of data set [8]: In Vitro Microsome Stability Assay (mouse). It is filed as in vitro ADME. The conditions noted are these: mouse liver microsomes, 30 min w/ NADPH. In outline: as §1
A short description of data set [9]: In Vitro Microsome Stability Assay (rat). It is filed as in vitro ADME. The conditions noted are these: rat liver microsomes, 30 min w/ NADPH. In outline: as §1
Data set [10] is described as follows: In Vitro Microsome Stability Assay (monkey). The conditions noted are these: monkey liver microsomes, 30 min w/ NADPH. The data set is classed as in vitro ADME. Put shortly: as §1

The structures appear in SMILES notation. Some results are limits rather than exact numbers.

By EC50 is commonly meant the concentration at which the effect is half-maximal.

Take `C[C@H]1CN(S(=O)(=O)c2ccc(N(C)C)cc2)CCCN([C@H](C)C2CCCCC2)CCCN(S(=O)(=O)N2CCc3cc(Cl)ccc3C2)C1` [A191, 4-{[(3S)-5-[(6-chloro-1,2,3,4-tetrahydroisoquinolin-2-yl)sulfonyl]-9-[(1 R)-1-cyclohexylethyl]-3-methyl-1,5,9-triazacyclododecan-1-yl]sulfonyl}-N,N-dimethylaniline]: the IC50 was found to be 57.6 nM in [1], 1100 nM in data set [2], 145 nM in [3] and 117 nM in data set [4]. In addition, the EC50 in data set [5] was 6730 nM; in data set [6], more than 25000 nM. In data set [7], the “Liver Microsome Stability-% Left after 30 min w/ NADPH (%) Human” value (“Liver Microsome Stability-% Left … (%) Human” for short) was found to be 48.6%. The “Liver Microsome Stability-% Left after 30 min w/ NADPH (%) Mouse” value (shortened to “Liver Microsome Stability-% Left … (%) Mouse”) in data set [8] is 55.3%. In [9], the “Liver Microsome Stability-% Left after 30 min w/ NADPH (%) Rat” value (“Liver Microsome Stability-% Left … (%) Rat” below) turned out to be 65.0%. Further, the “Liver Microsome Stability-% Left after 30 min w/ NADPH (%) Monkey” value (“Liver Microsome Stability-% Left … (%) Monkey” below) in [10] is recorded as 68.3%.
For the compound `CC(=O)N(C)c1ccc(CNS(=O)(=O)N2CCCN(CC3CCCCC3)CCCN(S(=O)(=O)c3ccc(N(C)C)cc3)C[C@H](C)C2)cc1` [A192, N-{4-[({[(3S)-9-(cyclohexylmethyl)-5-[4-(dimethylamino)benzenesulfonyl]-3-methyl-1,5,9-triazacyclododecan-1-yl]sulfonyl}amino)methyl]phenyl}-N-methylacetamide], the IC50 in data set [1] is 1150 nM; in data set [2], more than 25000 nM; in data set [3] it was 2330 nM; in data set [4], 1710 nM. Moreover, the EC50 in data set [5] is 9360 nM; in data set [6], more than 25000 nM. Also, the “Liver Microsome Stability-% Left … (%) Human” value in [7] is listed as 0.02%. Also, the “Liver Microsome Stability-% Left … (%) Mouse” value in data set [8] was 0.18%. The “Liver Microsome Stability-% Left … (%) Rat” value in [9] came out at 0.08%. The “Liver Microsome Stability-% Left … (%) Monkey” value in [10] worked out at 0.10%.
Regarding `COc1cc(F)ccc1N1CCN(S(=O)(=O)N2CCCN(CC3CCCCC3)CCCN(S(=O)(=O)c3ccc(N(C)C)cc3)CC3(CC3)C2)CC1` [A193], the IC50 in data set [1] amounted to 23.8 nM; in data set [2], 748 nM; in [3], 81.8 nM; in [4] it was 50.9 nM. Further, the EC50 was 6810 nM in data set [5] and more than 25000 nM in [6]. In addition, the “Liver Microsome Stability-% Left … (%) Human” value in data set [7] was 34.2%. Also, in [8], the “Liver Microsome Stability-% Left … (%) Mouse” value worked out at 10.1%. Moreover, the “Liver Microsome Stability-% Left … (%) Rat” value in data set [9] is listed as 11.3%. Also, the “Liver Microsome Stability-% Left … (%) Monkey” value in data set [10] came out at 7.72%.
`COc1cc(F)cc(N2CCN(S(=O)(=O)N3CCCN(CC4CCCCC4)CCCN(S(=O)(=O)c4ccc(N(C)C)cc4)C[C@H](C)C3)C[C@@H]2C)c1` [A194]: the IC50 in [1] was 261 nM; in data set [2] it was more than 25000 nM; in data set [3], 402 nM; in data set [4], 303 nM. Besides, the EC50 in data set [5] and in [6] was more than 25000 nM each time. The “Liver Microsome Stability-% Left … (%) Human” value in data set [7] is listed as 63.6%. For the same compound, in data set [8], the “Liver Microsome Stability-% Left … (%) Mouse” value is 68.5%. Also, in [9], the “Liver Microsome Stability-% Left … (%) Rat” value is 59.2%. Also, in data set [10], the “Liver Microsome Stability-% Left … (%) Monkey” value was 65.0%.
For `COc1cc(F)cc(N2CCN(S(=O)(=O)N3CCCN(CC4CCCCC4)CCCN(S(=O)(=O)c4ccc(N(C)C)cc4)CC4(CC4)C3)C[C@H]2C)c1` [A195], the IC50 came out at 211 nM in [1], 11200 nM in data set [2], 668 nM in data set [3] and 382 nM in [4]. For the same compound, the EC50 in [5] and in data set [6] was more than 25000 nM each time. Besides, the “Liver Microsome Stability-% Left … (%) Human” value in data set [7] was 53.6%. The “Liver Microsome Stability-% Left … (%) Mouse” value in data set [8] was 58.5%. Moreover, the “Liver Microsome Stability-% Left … (%) Rat” value in [9] is on record as 63.3%. Also, the “Liver Microsome Stability-% Left … (%) Monkey” value in data set [10] is reported as 32.8%.
Regarding `COc1cc(F)cc(N2[C@H](C)CN(S(=O)(=O)N3CCCN(CC4CCCCC4)CCCN(S(=O)(=O)c4ccc(N(C)C)cc4)C[C@H](C)C3)C[C@@H]2C)c1` [A197], the IC50 in data set [1] was 34.2 nM; in data set [2], 666 nM; in data set [3] it was 95.5 nM; in data set [4], 77.5 nM. In addition, the EC50 in [5] is 4130 nM; in data set [6], more than 25000 nM. The “Liver Microsome Stability-% Left … (%) Human” value in data set [7] is given as 70.7%. Also, in [8], the “Liver Microsome Stability-% Left … (%) Mouse” value is listed as 65.4%. The “Liver Microsome Stability-% Left … (%) Rat” value in [9] is recorded as 76.6%. For the same compound, the “Liver Microsome Stability-% Left … (%) Monkey” value in data set [10] is 92.8%.
Take `C[C@H]1CN(S(=O)(=O)c2ccc(N(C)C)cc2)CCCN(CC2CCCCC2)CCCN(S(=O)(=O)N2CCN(c3ccccc3Cl)CC2)C1` [A198, 4-{[(3S)-5-{[4-(2-chlorophenyl)piperazin-1-yl]sulfonyl}-9-(cyclohexylmethyl)-3-methyl-1,5,9-triazacyclododecan-1-yl]sulfonyl}-N,N-dimethylaniline]: the IC50 in data set [1] is 18.5 nM; in data set [2], 373 nM; in data set [3], 53.3 nM; in data set [4], 44.1 nM. Moreover, the EC50 in [5] is 1170 nM; in [6] it was more than 25000 nM. In addition, in data set [7], the “Liver Microsome Stability-% Left … (%) Human” value amounted to 39.2%. For the same compound, the “Liver Microsome Stability-% Left … (%) Mouse” value in data set [8] is 68.2%. In data set [9], the “Liver Microsome Stability-% Left … (%) Rat” value stood at 61.4%. Moreover, the “Liver Microsome Stability-% Left … (%) Monkey” value in data set [10] is listed as 65.1%.
Take `COc1ccc(N2CCN(S(=O)(=O)N3CCCN(CC4CCCCC4)CCCN(S(=O)(=O)c4ccc(N(C)C)cc4)C[C@H](C)C3)CC2)cc1` [A199, 4-{[(3S)-9-(cyclohexylmethyl)-5-{[4-(4-methoxyphenyl)piperazin-1-yl]sulfonyl}-3-methyl-1,5,9-triazacyclododecan-1-yl]sulfonyl}-N,N-dimethylaniline]: the IC50 in data set [1] was determined as 80.8 nM; in data set [2] it was 1420 nM; in [3], 162 nM; in [4], 132 nM. The EC50 in data set [5] and in [6] was more than 25000 nM each time. In data set [7], the “Liver Microsome Stability-% Left … (%) Human” value is listed as 8.0%. For the same compound, the “Liver Microsome Stability-% Left … (%) Mouse” value in data set [8] stood at 23.7%. Besides, the “Liver Microsome Stability-% Left … (%) Rat” value in [9] was found to be 28.3%. Also, the “Liver Microsome Stability-% Left … (%) Monkey” value in data set [10] was found to be 25.5%.
On to `COc1cc(F)cc(N2[C@H](C)CN(S(=O)(=O)N3CCCN(CC4CCCCC4)CCCN(S(=O)(=O)c4ccc(N(C)C)cc4)C[C@H](C)C3)C[C@H]2C)c1` [A200], for which the IC50 in data set [1] amounted to 11.2 nM; in [2], 285 nM; in data set [3], 27.9 nM; in data set [4], 29.1 nM. Further, the EC50 is 436 nM in data set [5] and more than 25000 nM in data set [6]. In data set [7], the “Liver Microsome Stability-% Left … (%) Human” value came to 78.1%. Also, the “Liver Microsome Stability-% Left … (%) Mouse” value in data set [8] is given as 71.9%. Besides, the “Liver Microsome Stability-% Left … (%) Rat” value in data set [9] was determined as 83.1%. Moreover, the “Liver Microsome Stability-% Left … (%) Monkey” value in data set [10] stood at 73.9%.

Values taken from patent US11578055B2, “Triazacyclododecansulfonamide (“TCD”)-based protein secretion inhibitors” (KEZAR LIFE SCIENCES, priority 2018, dated 2023).
